Results taken from patent US4435405A, “Quinoline derivatives which are 5-hydroxytryptamine antagonists” (Imperial Chemical Industries PLC, priority 1981, dated 1984).

Tests used:
LD50 in the mouse = details: in vivo
LD50 in the rat = details: in vivo, female
[1] = ip, intraperitoneally in the mouse

Compound | LD50 (LD50 in the mouse; [1]) | LD50 (LD50 in the mouse; ip, mouse, male, intraperitoneal) | LD50 (LD50 in the mouse; mouse, male, oral) | LD50 (LD50 in the rat; oral) | LD50 (LD50 in the rat; ip, intraperitoneal)
COc1ccccc1-c1cc2ccccc2nc1SCCN(C)C.Cl [2-(2-dimethylaminoethylthio)-3-(o-methoxyphenyl)-quinoline hydrochloride] | ~150 mg/kg |  |  |  | 
CC(C)c1cc2ccccc2nc1SCCN(C)C.Cl [2-(2-dimethylaminoethylthio)-3-isopropylquinoline hydrochloride] | ~100 mg/kg |  |  |  | 
CN(C)CCSc1nc2ccccc2cc1-c1ccccc1.Cl [2-(2-dimethylaminoethylthio)-3-phenylquinoline hydrochloride] |  | 75 mg/kg | 485 mg/kg | > 1000 mg/kg | 128 mg/kg
